Results as given in US20230287044A1, “NOVEL ANTIBACTERIAL PEPTIDE AND USE THEREOF” (priority 2020, published 2023).
Converted amounts (≈) assume the structure as drawn. Read-outs that look alike come from different tables or passages of the source. Square brackets hold non-standard residues; d marks the D form. Peptide text beside a SMILES is read from it.

Key:
[1] = Solubility of antibacterial peptides in solution; type: physicochemical
[2] = system: 30 species of Acinetobacter baumannii (A. baumannii); type: cell-based
Method: In addition, the results obtained by measuring the minimum inhibitory concentrations of KSH29, KSH42 and KSH43 against 30 species of Acinetobacter baumannii (A. baumannii) are shown in Table 4 below.
The minimum inhibitory concentrations (MIC) against the 30 species of Acinetobacter baumannii were measured in the following manner.
The strain 1605 was purchased from ATCC (American Type Culture Collection, USA). In addition, the strain 40203 was purchased from the Korean Culture Center of Microorganisms.
The COL^R refers to resistance to colistin, the TGC^R refers to resistance to tigecycline, and the TGC^I refers to tigecycline intermediate strains.

[3] = system: MRAB (A. baumannii) ATCC BAA 1605; type: cell-based, Acinetobacter baumannii
In short: (§1)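 Mid-log cultures grown in CAMHB and diluted to 1× 10^6 cfu/ml in PBS were mixed with an equal volume of peptide in CAMHB (80 µM to 0.63 µM twofold dilutions). MIC taken as the mean of three independent experiments.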

[4] = system: MRPA (P. aeruginosa) CCARM 2180; type: cell-based, Pseudomonas aeruginosa; settings: CCARM 2180, 18 h
In short: as §1

[5] = system: VRE (E. faecalis) ATCC 51575; type: cell-based, Enterococcus faecalis
In short: as §1

[6] = system: MRSA (S. aureus) KCCM 40510; type: cell-based, Staphylococcus aureus; settings: KCCM 40510, 18 h
In short: as §1

[7] = A. baumannii strain 102 (TGC^I)
[8] = A. baumannii strain 141 (TGC^R)
[9] = A. baumannii strain 147 (TGC^R)
[10] = A. baumannii strain 152 (TGC^R)
[11] = A. baumannii strain 40203 (Korean Culture Center of Microorganisms)
[12] = CAMHB, 37° C., 18 hours, average of three experiments
[13] = against 30 species of Acinetobacter baumannii

Compound | MIC ([2]; A. baumannii strain 1) [µM] | MIC ([2]; A. baumannii strain 6 (TGC^I)) [µM] | MIC ([2]; A. baumannii strain 10) [µM] | MIC ([2]; A. baumannii strain 14) [µM] | MIC ([2]; A. baumannii strain 15) [µM] | MIC ([2]; A. baumannii strain 16) [µM] | MIC ([2]; A. baumannii strain 19) [µM] | MIC ([2]; A. baumannii strain 22 (TGC^I)) [µM] | MIC ([2]; A. baumannii strain 39) [µM] | MIC ([2]; A. baumannii strain 44) [µM] | MIC ([2]; A. baumannii strain 66) [µM] | MIC ([2]; A. baumannii strain 68) [µM] | MIC ([2]; A. baumannii strain 69) [µM] | MIC ([2]; A. baumannii strain 71) [µM] | MIC ([2]; A. baumannii strain 76) [µM] | MIC ([2]; A. baumannii strain 82) [µM] | MIC ([2]; A. baumannii strain 89) [µM] | solubility at 12 h ([1]; aqueous buffer) [µM] | solubility at 12 h ([1]; plasma or biological fluid) [µM] | solubility at 12 h ([1]; water) [µM] | further results
Colistin [reference compound] | 0.63 | 2.5 | 2.5 | 1.25 | 0.63 | <0.31 | <0.31 | 1.25 | <0.31 | 1.25 | 1.25 | 0.63 | 1.25 | 1.25 | <0.31 | 0.63 | 2.5 | – | – | – | solubility at 12 h ([1]; read-out: Solubility in solution CAMHB): >200 µM; solubility at 12 h ([1]; read-out: Solubility in solution H2O): >2000 µM; solubility at 12 h ([1]; read-out: Solubility in solution PBS): >200 µM; MIC ([2]; A. baumannii strain 3 (COL^R)): >40 µM; MIC ([2]; A. baumannii strain 80): 0.63 µM; MIC ([2]; A. baumannii strain 86): 0.63 µM; MIC [2, 7]: 0.63 µM; MIC ([2]; A. baumannii strain 127): 0.63 µM; MIC [2, 8]: <0.31 µM; MIC ([2]; A. baumannii strain 144): 0.63 µM; MIC [2, 9]: 5 µM; MIC [2, 10]: 1.25 µM; MIC ([2]; A. baumannii strain 1605 (ATCC)): 0.63 µM; MIC ([2]; A. baumannii strain 10087): 1.25 µM; MIC ([2]; A. baumannii strain 19606): 1.25 µM; MIC [2, 11]: 0.63 µM
CC[C@@H](C)[C@@H](NC(=O)[C@@H](Cc1c[nH]c2ccccc12)NC(=O)[C@H](NC(=O)[C@@H](CC(C)C)NC(=O)[C@H](N)Cc1c[nH]c2ccccc12)C(C)C)C(=O)N[C@H](Cc1c[nH]c2ccccc12)C(=O)N[C@H](CCCNC(=N)N)C(=O)N[C@H](CCCNC(=N)N)C(=O)N[C@H](CCC(N)=O)C(=O)N[C@H](CCCNC(=N)N)C(N)=O [KSH31, wlvwiwrrqr] (H-[dW][dL][dV][dW][dI][dW][dR][dR][dQ][dR]-NH2; N-terminus assumed) | – | – | – | – | – | – | – | – | – | – | – | – | – | – | – | – | – | ≥ 100 | 25 (≈ 37.4 µg/mL) | > 2000 | MIC MRAB (A. baumannii) ATCC BAA 1605 [3, 12]: 1.25 µM (≈ 1.87 µg/mL); MIC MRPA (P. aeruginosa) CCARM 2180 [4]: >5 µM; MIC VRE (E. faecalis) ATCC 51575 [5, 12]: 1.25 µM (≈ 1.87 µg/mL)
CC[C@@H](C)[C@@H](NC(=O)[C@@H](Cc1c[nH]c2ccccc12)NC(=O)[C@H](NC(=O)[C@@H](CC(C)C)NC(=O)[C@H](N)Cc1c[nH]c2ccccc12)C(C)C)C(=O)N[C@H](Cc1c[nH]c2ccccc12)C(=O)N[C@H](CCCNC(=N)N)C(=O)N[C@H](CCCNC(=N)N)C(=O)N[C@H](CCCNC(=N)N)C(N)=O [KSH29, wlvwiwrrr] (H-[dW][dL][dV][dW][dI][dW][dR][dR][dR]-NH2; N-terminus assumed) | 1.25 (≈ 1.71 µg/mL) | 1.25 (≈ 1.71 µg/mL) | 1.25 (≈ 1.71 µg/mL) | 1.25 (≈ 1.71 µg/mL) | 1.25 (≈ 1.71 µg/mL) | 1.25 (≈ 1.71 µg/mL) | 1.25 (≈ 1.71 µg/mL) | 1.25 (≈ 1.71 µg/mL) | 1.25 (≈ 1.71 µg/mL) | 1.25 (≈ 1.71 µg/mL) | 1.25 (≈ 1.71 µg/mL) | 1.25 (≈ 1.71 µg/mL) | 1.25 (≈ 1.71 µg/mL) | 1.25 (≈ 1.71 µg/mL) | 1.25 (≈ 1.71 µg/mL) | 1.25 (≈ 1.71 µg/mL) | 1.25 (≈ 1.71 µg/mL) | ≥ 100 | 50 (≈ 68.5 µg/mL) | > 2000 | MIC [2, 7]: 1.25 µM (≈ 1.71 µg/mL); MIC ([2]; A. baumannii strain 127): 1.25 µM (≈ 1.71 µg/mL); MIC [2, 8]: 1.25 µM (≈ 1.71 µg/mL); MIC ([2]; A. baumannii strain 144): 1.25 µM (≈ 1.71 µg/mL); MIC [2, 9]: 1.25 µM (≈ 1.71 µg/mL); MIC [2, 10]: 1.25 µM (≈ 1.71 µg/mL); MIC ([2]; A. baumannii strain 10087): 1.25 µM (≈ 1.71 µg/mL); MIC ([2]; A. baumannii strain 19606): 1.25 µM (≈ 1.71 µg/mL); MIC [2, 11]: 1.25 µM (≈ 1.71 µg/mL); MIC50 [2, 13]: 1.25 µM (≈ 1.71 µg/mL); MIC90 [2, 13]: 1.25 µM (≈ 1.71 µg/mL)
CC[C@@H](C)[C@@H](NC(=O)[C@@H](Cc1c[nH]c2ccccc12)NC(=O)[C@@H](CCCCN)NC(=O)[C@@H](CCCCN)NC(=O)[C@H](N)CCCCN)C(=O)N[C@H](Cc1c[nH]c2ccccc12)C(=O)N[C@@H](C(=O)N[C@H](CC(C)C)C(=O)N[C@H](Cc1c[nH]c2ccccc12)C(=O)N[C@H](CCCCN)C(N)=O)C(C)C [KSH46, kkkwiwvlwk] (H-[dK][dK][dK][dW][dI][dW][dV][dL][dW][dK]-NH2; N-terminus assumed) | – | – | – | – | – | – | – | – | – | – | – | – | – | – | – | – | – | > 200 | 200 (≈ 283 µg/mL) | > 2000 | MIC MRAB (A. baumannii) ATCC BAA 1605 ([3]; ATCC BAA 1605, 18 h): 0.63 µM (≈ 0.891 µg/mL); MIC MRSA (S. aureus) KCCM 40510 [6]: 1.25 µM (≈ 1.77 µg/mL); MIC MRPA (P. aeruginosa) CCARM 2180 [4]: 1.25 µM (≈ 1.77 µg/mL); MIC VRE (E. faecalis) ATCC 51575 ([5]; ATCC 51575, 18 h): 1.25 µM (≈ 1.77 µg/mL)
